Results from PubChem BioAssay (NCI).
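Test compounds were applied to cells in 96-well plates for 48 hours at 5 doses. Definition used: TGI = concentration required for complete inhibition of growth.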

What was measured:
Test in all cases: DTP human tumour cell line panel, 48 h
[1] = test system: A549 NSCLC
[2] = test system: IGROV1 ovarian
[3] = test system: MDA-N
[4] = test system: CCRF-CEM leukemia
[5] = test system: HCT-15 colon
[6] = test system: SF-539 CNS
[7] = test system: TK-10 renal
[8] = test system: HOP-92 NSCLC
[9] = test system: HOP-62 NSCLC
[10] = test system: EKVX NSCLC
[11] = test system: HT29 colon
[12] = test system: RXF 393 renal
[13] = test system: SK-MEL-28 melanoma
[14] = test system: SF-295 CNS
[15] = test system: MOLT-4 leukemia
[16] = test system: LOX IMVI melanoma
[17] = test system: SF-268 CNS
[18] = test system: UACC-62 melanoma
[19] = test system: SW-620 colon
[20] = test system: M14 melanoma
[21] = test system: RPMI-8226 leukemia
[22] = test system: SK-MEL-5 melanoma
[23] = test system: HS 578T breast
[24] = test system: MDA-MB-231 breast
[25] = test system: NCI-H460 lung
[26] = test system: ACHN renal
[27] = test system: HCC-2998 colon
[28] = test system: DU-145 prostate
[29] = test system: U251 CNS
[30] = test system: T-47D breast
[31] = test system: NCI-H226 lung
[32] = test system: OVCAR-3 ovarian
[33] = test system: SK-MEL-2 melanoma
[34] = test system: OVCAR-5 ovarian
[35] = test system: OVCAR-8 ovarian
[36] = test system: MALME-3M melanoma
[37] = test system: A498 renal
[38] = test system: PC-3 prostate
[39] = test system: KM12 colon
[40] = test system: UACC-257 melanoma
[41] = test system: BT-549 breast
[42] = test system: SNB-19 CNS
[43] = test system: NCI-H23 lung
[44] = test system: COLO 205 colon
[45] = test system: 786-0 renal
[46] = test system: MCF7 breast
[47] = test system: SNB-75 CNS
[48] = test system: NCI/ADR-RES ovarian
[49] = test system: SN12C renal
[50] = test system: OVCAR-4 ovarian
[51] = test system: MDA-MB-435
[52] = test system: SK-OV-3 ovarian
[53] = test system: CAKI-1 renal
[54] = test system: NCI-H522 lung

SMILES: COCCN(CCNC(=O)c1cccc2c(N)c3cccc(C)c3nc12)CCOC
- TGI [1]: 8.48 µM
- TGI [2]: 7.25 µM
- TGI [3]: 2.75 µM
- TGI [4]: > 26.2 µM
- TGI [5]: 13 µM
- TGI [6]: 4.64 µM
- TGI [7]: 16.6 µM
- TGI [8]: > 57.7 µM
- TGI [9]: 11.3 µM
- TGI [10]: 7.7 µM
- TGI [11]: 10.2 µM
- TGI [12]: 5.96 µM
- TGI [13]: > 41.1 µM
- TGI [14]: > 22.9 µM
- TGI [15]: 2.38 µM
- TGI [16]: 3.27 µM
- TGI [17]: 2.3 µM
- TGI [18]: 10.6 µM
- TGI [19]: > 50.2 µM
- TGI [20]: 2.7 µM
- TGI [21]: 5.91 µM
- TGI [22]: 2.65 µM
- TGI [23]: 9.86 µM
- TGI [24]: 5.43 µM
- TGI [25]: 7.11 µM
- TGI [26]: 13.5 µM
- TGI [27]: 1.72 µM
- TGI [28]: 9.64 µM
- TGI [29]: > 63.6 µM
- TGI [30]: 27.5 µM
- TGI [31]: 6.15 µM
- TGI [32]: 15.2 µM
- TGI [33]: 18.7 µM
- TGI [34]: 15.6 µM
- TGI [35]: 19 µM
- TGI [36]: 1.96 µM
- TGI [37]: 14.6 µM
- TGI [38]: 8.9 µM
- TGI [39]: 6.93 µM
- TGI [40]: 19.9 µM
- TGI [41]: 20.3 µM
- TGI [42]: 22.3 µM
- TGI [43]: 3.53 µM
- TGI [44]: 2.13 µM
- TGI [45]: 8.62 µM
- TGI [46]: 23.3 µM
- TGI [47]: 4.75 µM
- TGI [48]: 33.7 µM
- TGI [49]: 6.54 µM
- TGI [50]: 6.38 µM
- TGI [51]: 11 µM
- TGI [52]: 42.1 µM
- TGI [53]: 4.49 µM
- TGI [54]: 0.894 µM
